Results as given in ChEMBL document CHEMBL1135147, “8-Methoxyquinolines as PDE4 inhibitors” (Bioorg Med Chem Lett, 2002).

Experiments:
[1] = target: Phosphodiesterase 3 (Homo sapiens) (UniProt Q14432+Q13370); assay: Inhibition of human platelet Phosphodiesterase 3 at 20 uM
[2] = target: Phosphodiesterase 4 (Rattus norvegicus, UniProt P14270+P14646+P14644+P54748); assay: Inhibition of rolipram binding to PDE4 in rat brain; type: tissue-based
[3] = target: T1, Phosphodiesterase 4 (Homo sapiens, UniProt P27815+Q08499+Q07343+Q08493); assay: Inhibition of Phosphodiesterase 4 from human U937 cells; type: cell-based; conditions: u-937
[4] = target: T1, Phosphodiesterase 4; assay: Relative inhibition of PDE4 activity and rolipram binding; type: protein assay

| Structure (SMILES) | inhibition [1] [%] | IC50 [2] [nM] | IC50 [3] [nM] | Ratio [4] |
| --- | --- | --- | --- | --- |
| CCc1ccc2c(C(=O)Nc3c(Cl)cncc3Cl)ccc(OC)c2n1 | 35 | 75.3 | 43 | 0.57 |
| CON=C(C)c1ccc2c(C(=O)Nc3c(Cl)cncc3Cl)ccc(OC)c2n1 | 22 | 140 | 210 | 1.5 |
| COc1ccc(C(=O)Nc2c(Cl)cncc2Cl)c2ccc(C(C)=O)nc12 | 27 | 1500 | 440 | 0.29 |
| COc1ccc(C(=O)Nc2c(Cl)cncc2Cl)c2ccc(C#N)nc12 | 38 | 43 | 700 | 16.3 |
| COc1ccc(C(=O)Nc2c(Cl)cncc2Cl)c2ccc(C(C)O)nc12 (stereo not drawn) | 30 | 790 | 180 | 0.22 |
| COc1ccc(C(=O)Nc2c(Cl)cncc2Cl)c2ccc(C)nc12 | 21 | 74 | 88 | 1.19 |
| COc1ccc(C(=O)Nc2c(Cl)cncc2Cl)c2cccnc12 | 10 |  |  |  |
| CCc1cnc2c(OC)ccc(C(=O)Nc3c(Cl)cncc3Cl)c2c1 | 12 | 160 | 210 | 1.31 |
| COc1ccc(C(=O)Nc2c(Cl)cncc2Cl)c2ccc(C(F)(F)F)nc12 | 15 | 77 | 51 | 0.66 |
